inhibition, paw edema and heat hyperalgesia data for two compounds are collected here from US9908848B2, “Amide derivatives of lactam based N-acylethanolamine acid amidase (NAAA) inhibitors” (The Regents of the University of California, priority 2013, dated 2018).

The target of assay [1] is T1, Rat AC (r-AC), Acid Ceramidase (Rattus norvegicus, UniProt Q6P7S1).
T1 construct: V5 (C); His (C); made in house; host or cells: HEK293 cells transfected with pEF6-rAC-V5/His, selected with G418; soluble fraction after freeze/thaw
T1 sequence (Q6P7S1 21-394): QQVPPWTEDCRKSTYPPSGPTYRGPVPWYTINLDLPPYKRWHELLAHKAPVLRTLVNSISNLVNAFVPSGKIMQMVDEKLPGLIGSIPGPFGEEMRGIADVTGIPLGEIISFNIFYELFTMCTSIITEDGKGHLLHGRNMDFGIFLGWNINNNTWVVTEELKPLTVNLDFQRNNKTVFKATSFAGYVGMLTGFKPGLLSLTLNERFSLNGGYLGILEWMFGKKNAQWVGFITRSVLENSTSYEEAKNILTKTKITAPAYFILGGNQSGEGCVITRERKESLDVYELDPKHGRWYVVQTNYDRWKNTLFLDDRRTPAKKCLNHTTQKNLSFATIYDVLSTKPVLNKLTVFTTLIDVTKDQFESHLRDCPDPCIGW
Description: Rat AC (r-AC) assay, UPLC/MS. It is filed as biochemical. Conditions: read-out: r-AC UPLC/MS assay % inhib. Here is the method: The selectivity of selected compounds versus Acid Ceramidase (AC) was determined.
Rat AC (r-AC) was cloned from a brain cDNA library using primers based on the sequence obtained from the National Center for Biotechnology Information (NCBI) database: 5′rAC (5′-GACCATGCTGGGCCGTAGT-3′) (SEQ ID NO:1) and 3′rAC (5′-CCAGCCTATACAAGGGTCT-3′) (SEQ ID NO:2). The PCR (High Fidelity PCR Master, Roche) product was subcloned into a pEF6-V5/His vector (Invitrogen) to construct a mammalian expression vector encoding V5/His-tagged rat AC. HEK293 cells were transfected with pEF6-rAC-V5/His using Super-Fect reagent (Qiagen) and screened with G418 (0.3 mg/mL). Cells were suspended in 20 mM Tris HCl (pH 7.5) containing 0.32M sucrose, sonicated and centrifuged at 800×g for 15 min at 4° C. The supernatants were centrifuged again at 12,000×g for 30 min at 4° C. The pellets were suspended in phosphate-buffered saline (PBS) and subjected to 2 freeze-thaw cycles at −80° C. The suspensions were centrifuged at 105,000×g for 1 hour at 4° C. The supernatants containing recombinant AC were kept at −80° C. until use. Protein concentration was measured using the bicinchoninic acid (BCA) assay (Pierce). Recombinant rat AC (50 μg) was preincubated with inhibitors (final DMSO concentration 1%) in assay buffer (100 mM sodium phosphate, 0.1% Nonidet P-40, 150 mM NaCl, 3 mM DTT, 100 mM sodium citrate, pH 4.5) for 30 min at 37° C. Reactions were started by the addition of 100 μM N-lauroyl ceramide (Nu-Chek Prep, Elysian, Minn.) and carried on for 30 min at 37° C. Reactions were stopped by addition of a mixture of chloroform/methanol (2:1, vol/vol) containing 1 nmol of heptadecanoic acid (HDA; NuChek Prep). The organic phases were collected, dried under N2, and analyzed by LC-MS in the negative-ion mode using […] (HDA) as internal standard (m/z=199 for lauric acid, m/z=269 for HDA). HDA was eluted on an XDB Eclipse C18 column isocratically at 2.2 mL/min for 1 min with a solvent mixture of 95% methanol and 5% water, both containing 0.25% acetic acid and 5 mM ammonium acetate. The column temperature was 50° C. Electrospray ionization (ESI) was in the negative mode, capillary voltage as 4 kV, and fragmentor voltage was 100 V. N2 was used as drying gas at a flow rate of 13 L/min and a temperature of 350° C. Nebulizer pressure was set at 60 psi. We monitored […] in the selected-ion monitoring (SIM) mode using HDA as internal standard. Calibration curves were generated using commercial lauric acid (Nu-Chek Prep; m/z=199).

Assay [2] deals with carrageenan-induced paw edema and heat hyperalgesia. Description: Carrageenan-induced inflammation (paw edema, heat hyperalgesia). It is filed as in vivo. The following applies: mice, intraperitoneal, 10-100 mg/kg.

Take `CCCCCCCCC(=O)N[C@H]1CNC1=O` [Example 3, N-[(3S)-2-Oxoazetidin-3-yl]-nonanamide]: the inhibition at 1 µM in assay [1] is 25%. Also, the paw edema result in assay [2] (FIG. 1 A) is reported as “reduced”. Also, in assay [2] (FIG. 1 B), the heat hyperalgesia entry is “reduced”.

Regarding `O=C(CCCCCCc1ccccc1)N[C@H]1CNC1=O` [Example 7, 7-Phenyl-N-[(3S)-2-Oxoazetidin-3-yl]-heptanamide], the inhibition at 1 µM in assay [1] stood at 25%.
